Structures can show the parent of a compound that is named as a salt. Some results are limits rather than exact numbers.

The target of the test is T1, G9a (Homo sapiens, UniProt Q96KQ7).
T1 sequence (Q96KQ7 1-1210): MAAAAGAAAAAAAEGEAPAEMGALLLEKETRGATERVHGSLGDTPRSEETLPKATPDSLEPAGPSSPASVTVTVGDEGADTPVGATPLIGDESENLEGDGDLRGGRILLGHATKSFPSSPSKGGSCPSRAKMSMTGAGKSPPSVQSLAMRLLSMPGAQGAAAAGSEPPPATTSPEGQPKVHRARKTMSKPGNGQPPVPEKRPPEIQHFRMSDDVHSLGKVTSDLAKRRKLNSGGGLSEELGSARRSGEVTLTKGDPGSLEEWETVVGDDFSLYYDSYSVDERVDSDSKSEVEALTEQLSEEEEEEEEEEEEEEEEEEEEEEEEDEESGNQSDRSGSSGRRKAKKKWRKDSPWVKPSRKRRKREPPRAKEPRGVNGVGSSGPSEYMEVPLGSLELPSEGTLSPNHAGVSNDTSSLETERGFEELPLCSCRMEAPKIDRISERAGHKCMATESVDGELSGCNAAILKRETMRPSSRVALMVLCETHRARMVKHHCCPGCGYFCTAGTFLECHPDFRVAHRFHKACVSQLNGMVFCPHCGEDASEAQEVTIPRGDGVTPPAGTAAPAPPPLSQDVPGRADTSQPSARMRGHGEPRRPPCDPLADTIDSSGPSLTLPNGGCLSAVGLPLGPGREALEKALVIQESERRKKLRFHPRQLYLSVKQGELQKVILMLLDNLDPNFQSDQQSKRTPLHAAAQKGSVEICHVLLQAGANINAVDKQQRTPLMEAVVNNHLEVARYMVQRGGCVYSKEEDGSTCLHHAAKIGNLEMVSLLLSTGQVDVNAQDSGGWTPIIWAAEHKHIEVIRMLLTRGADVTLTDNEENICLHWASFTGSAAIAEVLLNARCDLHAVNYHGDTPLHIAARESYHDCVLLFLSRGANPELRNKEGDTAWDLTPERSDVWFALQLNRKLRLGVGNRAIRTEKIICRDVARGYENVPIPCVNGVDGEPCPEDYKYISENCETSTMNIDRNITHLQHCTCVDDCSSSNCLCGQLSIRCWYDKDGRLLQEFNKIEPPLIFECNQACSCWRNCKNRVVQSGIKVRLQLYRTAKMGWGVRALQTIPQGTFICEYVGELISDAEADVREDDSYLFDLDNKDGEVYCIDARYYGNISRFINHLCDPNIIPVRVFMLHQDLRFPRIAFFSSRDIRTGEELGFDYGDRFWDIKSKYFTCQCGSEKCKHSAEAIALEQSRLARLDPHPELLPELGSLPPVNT
In words: G9a AlphaLISA enzymatic activity assay. Format: biochemical. Conditions: 0.15 nM G9a, 15 uM S-adenosyl-methionine, 100 nM biotinylated histone 3 peptide (1-21), 1 hour at room temperature; read-out: G9a in (uM) (IC50, concentration that produced 50% inhibition). From the text:
The G9a AlphaLISA assay was used to detect the methyl modifications of a biotinylated histone H3 peptide by the compounds. These modifications are done by the histone methyl transferase activity of the G9a enzyme. The assay consists of reading a chemiluminescent signal at 615 nm; this signal is generated by a laser excitation at 680 nm that transfers a reactive singlet oxygen between the donor beads and acceptor beads. Donor beads are streptavidin conjugated and bind to the biotin on the peptide. Acceptor beads are conjugated with an antibody that recognizes the specific G9a methyl mark on the peptide. If there is a methyl mark on the peptide, the acceptor beads will bind to the peptide. Upon binding, the acceptor beads will be in close proximity (<200 nm) of the donor beads and when the donor beads are excited, the transfer of the oxygen can occur and a strong signal will be generated. If there is no methyl mark, the interaction between beads will not occur and signal will be at background levels.
For the assay, the following buffer was used to set up reactions: 50 mM Tris-HCl pH9, 50 mM NaCl, 0.01% Tween-20 and 1 mM DTT (added fresh prior to starting the reactions). The assay is set up by adding a final concentration of 0.15 nM G9a, 15 uM S-adenosyl-methionine and, 100 nM biotinylated histone 3 peptide (1-21). The reaction is incubated at room temperature for 1 hour, and subsequently quenched by the addition of the acceptor beads (anti-H3k9me2 AlphaLISA acceptor beads, PerkinElmer # AL117) at a final concentration of 20 ug/mL. The acceptor beads are incubated for 1 hour. After 1 hour, the donor beads are added at a final concentration of 20 ug/mL (Alpha Streptavidin donor beads, PerkinElmer #6760002). Donor beads are incubated for 0.5 hours. Both donor and acceptor beads are resuspended in AlphaLISA 5X Epigenetics Buffer 1 Kit (PerkinElmer # AL008) prior to addition to the reaction. All manipulations and incubations with the donor and acceptor beads are done in subdued light. Signal is detected in an EnVision plate reader in Alpha mode (see ACS Med Chem Lett. 2014 Jan. 2; 5(2):205-9. doi: 10.1021/m1400496h. eCollection 2014. Discovery and development of potent and selective inhibitors of histone methyltransferase g9a.)
Percent inhibition was calculated for each compound dilution and the concentration that produced 50% inhibition was calculated. This value is presented as the IC50.
As for `COc1cc2c3c(c(NC(C)(C)C)nc2cc1OCCCN1CCCC1)CCC3` [Example 94, N-tert-butyl-8-methoxy-7-[3-(pyrrolidin-1-yl)propoxy]-1H,2H,3H-cyclopenta[c]quinolin-4-amine formate], the IC50 is 1.4 µM.

Consider `CC(C)Nc1nc2cc(OCCCN3CCCC3)c(O)cc2c2c1CCC2` [Example 84, 4-[(propan-2-yl)amino]-7-[3-(pyrrolidin-1-yl)propoxy]-1H,2H,3H-cyclopenta[c]quinolin-8-ol trifluoroacetate], for which the IC50 was determined as 1.6 µM.

In the case of `COc1cc2c3c(c(NCC(F)(F)F)nc2cc1OCCCN1CCCC1)CCC3` [Example 65, 8-methoxy-7-[3-(pyrrolidin-1-yl)propoxy]-N-(2,2,2-trifluoroethyl)-1H,2H,3H-cyclopenta[c]quinolin-4-amine formate], the IC50 came out at 0.74 µM.

On to `COc1cc2c3c(c(NCC4CC4)nc2cc1OCCCN1CCCC1)CCC3` [Example 108, N-(cyclopropylmethyl)-8-methoxy-7-[3-(pyrrolidin-1-yl)propoxy]-1H,2H,3H-cyclopenta[c]quinolin-4-amine trifluoroacetate], for which the IC50 stood at 0.037 µM.

As to `COc1cc2nc(NC(C)C)c3c(c2cc1OCCCN1CCCC1)COC3` [Example 45, 7-methoxy-N-(propan-2-yl)-8-[3-(pyrrolidin-1-yl)propoxy]-1H,3H-furo[3,4-c]quinolin-4-amine], the IC50 turned out to be 4.3 µM.

Turning to `COc1ccc(CNc2nc3cc(OCCCN4CCCC4)c(OC)cc3c3c2CC(C)(C)C3)c(OC)c1` [Example 117, N-[(2,4-dimethoxyphenyl)methyl]-8-methoxy-2,2-dimethyl-7-[3-(pyrrolidin-1-yl)propoxy]-1H,2H,3H-cyclopenta[c]quinolin-4-amine formate], the IC50 is 0.36 µM.

Take `COc1cc2c3c(c(NC(C)=O)nc2cc1OCCCN1CCCC1)CCC3` [Example 14, N-{8-methoxy-7-[3-(pyrrolidin-1-yl)propoxy]-1H,2H,3H-cyclopenta[c]quinolin-4-yl}acetamide trifluoroacetate]: the IC50 came out at 0.19 µM.

As for `COc1cc2c3c(c(N)nc2cc1OCCCN1CCCC1)CCC3` [Example 116, 8-methoxy-7-[3-(pyrrolidin-1-yl)propoxy]-1H,2H,3H-cyclopenta[c]quinolin-4-amine formate], the IC50 came out at 0.006 µM.

As to `COc1cc2c3c(c(NC4CCC(O)C4)nc2cc1OCCCN1CCCC1)CCC3` (stereo not shown) [Example 126, 3-({8-methoxy-7-[3-(pyrrolidin-1-yl)propoxy]-1H,2H,3H-cyclopenta[c]quinolin-4-yl}amino)cyclopentan-1-ol formate], the IC50 came out at 0.15 µM.

Consider `CC[C@@H](C)Nc1nc2cc(OCCCN3CCCC3)c(OC)cc2c2c1CCC2` [Example 100, N-[(2R)-butan-2-yl]-8-methoxy-7-[3-(pyrrolidin-1-yl)propoxy]-1H,2H,3H-cyclopenta[c]quinolin-4-amine formate], for which the IC50 is 0.047 µM.

For the molecule `CNc1nc2cc(OCCCN3CCCC3)c(OC)cc2c2c1CC(O)CC2` (stereo not shown) [Example 20, 2-methoxy-6-(methylamino)-3-[3-(pyrrolidin-1-yl)propoxy]-7,8,9,10-tetrahydrophenanthridin-8-ol formate], the IC50 was 0.14 µM.

With `COc1cc2c3c(c(NCCO)nc2cc1OCCCN1CCCC1)CCCC3` [Example 15, 2-({2-methoxy-3-[3-(pyrrolidin-1-yl)propoxy]-7,8,9,10-tetrahydrophenanthridin-6-yl}amino)ethan-1-ol formate], the IC50 was found to be 0.19 µM.

Regarding `COc1cc2c3c(c(NC4COC4)nc2cc1OCCCN1CCCC1)CCC3` [Example 44, 8-methoxy-N-(oxetan-3-yl)-'7-[3-(pyrrolidin-1-yl)propoxy]-1H,2H,3H-cyclopenta[c]quinolin-4-amine formate], the IC50 was determined as 5.8 µM.

In the case of `COc1cc2c3c(c(N[C@H]4CCC[C@H]4O)nc2cc1OCCCN1CCCC1)CCC3` (racemic) [Example 125, (1R,2S)-2-({8-methoxy-7-[3-(pyrrolidin-1-yl)propoxy]-1H,2H,3H-cyclopenta[c]quinolin-4-yl}amino)cyclopentan-1-ol and (1S,2R)-2-({8-methoxy-7-[3-(pyrrolidin-1-yl)propoxy]-1H,2H,3H-cyclopenta[c]quinolin-4-yl}amino)cyclopentan-1-ol (1:1) mixture as formate salt], the IC50 was determined as 1 µM.

Take `COc1cc2c3c(c(N(C)C4CCCC4)nc2cc1OCCCN1CCCC1)CCC3` [Example 73, N-cyclopentyl-8-methoxy-N-methyl-7-[3-(pyrrolidin-1-yl)propoxy]-1H,2H,3H-cyclopenta[c]quinolin-4-amine trifluoroacetate]: the IC50 amounted to 1.9 µM.

With `COc1cc2c3c(c(NC(C)C)nc2cc1OCCCN1CCC(C)(C)C1)CCC3` [Example 86, 7-[3-(3,3-dimethylpyrrolidin-1-yl)propoxy]-8-methoxy-N-(propan-2-yl)-1H,2H,3H-cyclopenta[c]quinolin-4-amine formate], the IC50 is more than 10 µM.

For `COc1cc2c3c(cnc2cc1OCCCN1CCCC1)CCC3` [Example 21, 1-[3-({8-methoxy-1H,2H,3H-cyclopenta[c]quinolin-7-yl}oxy)propyl]pyrrolidine trifluoroacetate], the IC50 came to 0.62 µM.

With `COc1cc2c3c(c(C4CCCC4)nc2cc1OCCCN1CCCC1)CCCCN3` [Example 79, 1-[3-({6-cyclopentyl-10-methoxy-1H,2H,3H,4H,5H-azepino[3,2-c]quinolin-9-yl}oxy)propyl]pyrrolidine triflate], the IC50 came out at 0.003 µM.

Regarding `COc1cc2c3c(c(NC4CCOCC4)nc2cc1OCCCN1CCCC1)CCCC3` [Example 12, 2-methoxy-N-(oxan-4-yl)-3-[3-(pyrrolidin-1-yl)propoxy]-7,8,9,10-tetrahydrophenanthridin-6-amine trifluoroacetate], the IC50 is 0.52 µM.

`COc1cc2c3c(c(C)nc2cc1OCCCN1CCCC1)CCC(C)N3` (stereo not shown) [Example 31, 1-[3-({9-methoxy-2,5-dimethyl-1H,2H,3H,4H-benzo[h]1,6-naphthyridin-8-yl}oxy)propyl]pyrrolidine trifluoroacetate]: the IC50 was determined as 0.009 µM.

For `COc1cc2c3c(cnc2cc1OCCCN1CCCC1)CCC(C)(C)N3` [Example 75, 1-[3-({9-methoxy-2,2-dimethyl-1H,2H,3H,4H-benzo[h]1,6-naphthyridin-8-yl}oxy)propyl]pyrrolidine formate], the IC50 turned out to be 0.014 µM.

In the case of `COc1cc2c3c(c(NC4CCC4)nc2cc1OCCCN1CCCC1)CCC3` [Example 7, N-cyclobutyl-8-methoxy-7-[3-(pyrrolidin-1-yl)propoxy]-1H,2H,3H-cyclopenta[c]quinolin-4-amine formate], the IC50 is 0.045 µM.

The values above are taken from patent US10829452B2, “Histone methyltransferase inhibitors” (GLOBAL BLOOD THERAPEUTICS, INC., priority 2016, dated 2020).
